Reference: US20100015727A1, “METHOD FOR DETERMINING TRANSPORT ACTIVITY OF A TRANSPORT PROTEIN” (BOEHRINGER INGELHEIM INTERNATIONAL GMBH, priority 2006, published 2010)

Biological target: T1, MRP4 (Homo sapiens, UniProt O15439)
T1 construct: infected with a baculovirus construct containing the full-length cDNA encoding MRP4; made in house; host or cells: Hi5 or Sf9 insect cells (baculovirus)
T1 sequence (O15439 1-1325): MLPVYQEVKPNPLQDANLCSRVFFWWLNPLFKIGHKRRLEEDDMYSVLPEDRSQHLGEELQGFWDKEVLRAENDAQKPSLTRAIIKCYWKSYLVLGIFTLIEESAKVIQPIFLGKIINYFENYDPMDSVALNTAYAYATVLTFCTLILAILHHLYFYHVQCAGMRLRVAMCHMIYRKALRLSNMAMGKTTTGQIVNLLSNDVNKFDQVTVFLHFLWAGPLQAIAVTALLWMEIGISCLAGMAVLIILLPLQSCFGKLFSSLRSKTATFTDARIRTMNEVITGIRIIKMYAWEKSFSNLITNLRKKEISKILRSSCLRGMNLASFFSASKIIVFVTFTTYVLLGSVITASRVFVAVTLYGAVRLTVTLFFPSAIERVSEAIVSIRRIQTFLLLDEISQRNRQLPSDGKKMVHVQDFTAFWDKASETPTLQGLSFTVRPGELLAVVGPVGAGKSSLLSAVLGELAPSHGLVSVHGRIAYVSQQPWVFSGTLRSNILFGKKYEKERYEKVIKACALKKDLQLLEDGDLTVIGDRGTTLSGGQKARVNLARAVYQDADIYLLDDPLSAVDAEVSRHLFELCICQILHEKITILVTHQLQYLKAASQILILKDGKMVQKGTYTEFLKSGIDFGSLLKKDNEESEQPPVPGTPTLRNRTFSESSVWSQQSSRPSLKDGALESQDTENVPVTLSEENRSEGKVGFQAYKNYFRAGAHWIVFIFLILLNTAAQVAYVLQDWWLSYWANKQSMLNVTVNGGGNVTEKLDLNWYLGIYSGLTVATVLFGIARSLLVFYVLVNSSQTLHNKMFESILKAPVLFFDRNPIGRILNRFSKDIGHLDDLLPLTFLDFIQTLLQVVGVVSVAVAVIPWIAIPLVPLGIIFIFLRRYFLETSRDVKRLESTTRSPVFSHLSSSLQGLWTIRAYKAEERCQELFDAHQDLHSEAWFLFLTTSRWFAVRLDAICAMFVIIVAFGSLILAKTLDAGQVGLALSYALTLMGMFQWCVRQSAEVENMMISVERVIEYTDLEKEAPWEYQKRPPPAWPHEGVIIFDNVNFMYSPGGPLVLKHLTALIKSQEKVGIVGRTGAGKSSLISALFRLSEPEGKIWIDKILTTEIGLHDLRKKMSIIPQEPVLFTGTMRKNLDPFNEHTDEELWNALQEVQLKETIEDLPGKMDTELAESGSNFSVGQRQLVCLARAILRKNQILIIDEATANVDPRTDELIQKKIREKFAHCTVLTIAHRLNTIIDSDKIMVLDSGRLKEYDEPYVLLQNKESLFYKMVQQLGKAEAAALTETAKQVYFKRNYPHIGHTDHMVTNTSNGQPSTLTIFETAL
Test: SPA assay of MRP4 transport activity (3H-folic acid uptake into membrane vesicles)
Type: biochemical
Settings: inhibition of MRP4 transport of 3H-folic acid into membrane vesicles from baculovirus-infected insect cells; Protein A SPA beads, anti-MRP4 rabbit antiserum
Experimental: • 1) Membrane vesicles from insect cells (Hi5 or Sf9) infected with a baculovirus construct containing the full-length cDNA encoding MRP4 are prepared as described by van Aubel et al. (van Aubel et al., 2002) with some modifications: Hi5 cells are cultured in suspension to a cell density of 1×10^6 cells/ml in Insect-Xpress serum free insect cell medium and infected with baculovirus construct containing the full-length cDNA encoding MRP4. Three days after infection, cells are collected by centrifugation at 3000 rpm for 10 min. […] Protein concentration of the membrane preparation is determined using standard methods, e.g. the BCA protein assay (Pierce, product number 23250). • 2) Determination of transport activity of MRP4: Membrane vesicles prepared in 1) are diluted in Tris/sucrose buffer to a concentration of 3.3 μg protein/μl. […] Luminescence signals are measured with the LEADSeeker or TopCount system after 30 min, 1 h, 2 h, 4 h, or up to 24 h. • 3) Calculation of inhibitory effect of a test compound: The relative transport activities of MRP4 determined in the presence of a test compound is calculated as percentage of luminescence determined in the presence of the test compound compared to luminescence determined in the absence of the test compound.

IC50: 35 µM
SMILES: OCCN(CCO)c1nc(N2CCCCC2)c2nc(N(CCO)CCO)nc(N3CCCCC3)c2n1 [Dipyridamole]
